Tests used:
[1] = target: T1, Cathepsin S (Homo sapiens, UniProt P25774); test: Second-order rate constants of inhibition (kobs/[I]), cathepsin S; format: biochemical
T1 construct: made in house
Experimental: (§1) All kinetic studies were performed using an fMax fluorescence plate reader (Molecular Devices) in kinetic mode with 96- or 384-well plates. ACC fluorescence was monitored at excitation and emission wavelengths of 355 and 460 nm, respectively. Recombinant human cysteine cathepsins L, V, B, K, and S were expressed and purified as previously described. Prior to use, all cysteine cathepsins were titrated with E64 to normalize enzymatic activity. Assays for cathepsins were conducted in 100 mM sodium acetate buffer containing 10 mM NaCl and 10 mM DTT (pH 5.5). Breast cancer cell lysates (BT-474, MCF-7, MDA-MB-231) were prepared by culturing cells to confluence in the appropriate media, replacing media with PBS, and harvesting the cells using a cell scraper (without trypsin). The cells were pelleted by centrifugation (400 × g, 5 min), resuspended in PBS, and centrifuged again under the same conditions. After removal of the supernatant, the pellet was resuspended in cathepsin assay buffer (excluding DTT) and sonicated. Lysates were then clarified by centrifugation (12,000 × g, 5 min), and the supernatants were collected and stored at −80 °C until use. All enzymatic assays, including HyCoSuL library screening and kinetic analyses of synthetic substrates, inhibitors, probes and prodrugs, were conducted at 37 °C and repeated at least three times. Mean values are reported. Kinetic data were analyzed using GraphPad Prism software (version 10.4.1).
(§2) The second-order rate constants of inhibition (k obs/[I]) were determined for human recombinant cathepsins S, B, L, and V using their respective assay buffers. All measurements were performed under pseudo-first-order kinetic conditions, as previously described. Inhibitors or ABPs were serially diluted in assay buffer and transferred to a 96-well plate. Each well was supplemented with the fluorogenic substrate Cbz-Phe-Arg-AMC at a final concentration of 25 μM and preincubated for 15 min. In parallel, enzymes were preactivated in assay buffer for 15 min at room temperature. Following preincubation, the activated enzymes were added to the wells, and fluorescence was monitored immediately for 30 min. The k obs/[I] values (M^-1S^-1) were calculated from the progress curves and averaged from at least three independent experiments. Final inhibitor (or ABP) concentrations were maintained at a minimum of 5-fold excess relative to enzyme concentrations to ensure pseudo-first-order conditions. Results were analyzed in GraphPad Prism and are reported as mean ± standard deviation.

[2] = target: T2, Cathepsin L (Homo sapiens, UniProt P07711); test: Second-order rate constants of inhibition (kobs/[I]), cathepsin L; format: biochemical; settings: Figure 4D; Cy5- and BODIPY-labeled probes
T2 construct: made in house
Experimental: as §1, §2

[3] = target: T3, Cathepsin V (Homo sapiens, UniProt O60911); test: Second-order rate constants of inhibition (kobs/[I]), cathepsin V; format: biochemical; settings: Figure 4D; Cy5- and BODIPY-labeled probes
T3 construct: made in house
Experimental: as §1, §2

[4] = target: T1, Cathepsin S; test: SDS-PAGE profiling of cathepsin labeling by OG-233 ABP; format: biochemical; settings: cathepsins 10 nM; probe 10, 100, 500 nM; 30 min
Experimental: Subsequently, each enzyme preparation was incubated with OG-233 at final probe concentrations of 10 nM, 100 nM, and 500 nM for 30 min in a total reaction volume of 200 μL. After incubation, 100 μL of 3× SDS loading buffer containing DTT was added to each sample. The mixtures were boiled for 5 min, and 20 μL of each sample was loaded onto 4−12% Bis-Tris Plus gels (15-well format). Electrophoresis was performed at 200 V for 30 min alongside 2 μL of PageRuler Prestained Protein Ladder. Following separation, the gels were scanned directly at 700 nm (Cy5 fluorescence channel, excitation 685 nm) using a Sapphire biomolecular imager (Azure Biosystems). Band intensities corresponding to labeled cathepsins were quantified using Image Studio software.

[5] = target: T4, active cathepsin S in MDA-MB-231 live cells (Homo sapiens, UniProt P25774); test: Labeling of active cathepsin S in MDA-MB-231 live cells with Cy5 probes; format: cell-based; settings: probe 1 μM, 0,5 to 24 h
T4 construct: endogenous in cells; host or cells: MDA-MB-231
Experimental: (§3) 50,000 of MDA-MB-231 cells were seeded into 12-well plate and allowed to attach overnight. The next day, OG-233 and OG-234 probes (1 μM final concentration) were added to the cells and incubated for various times (from 0,5 h up to 24 h). Control cells were preincubated with cathepsin S inhibitors (JN1, JN4, JN7) at 25 μM for 2 h, and then incubated with OG-233 or OG-234 probes for 24 h. Next, cells were harvested and prepared for SDS-PAGE analysis as described in the above section. Electrophoresis was run for 25 min (4−12% Bis-Tris Plus 10-well gel, 200 V). Next, proteins were transferred onto the membrane (0.2 μm nitrocellulose membrane, 10 V, 60 min) and Ponceau S was used to verify equal loading and transfer. Membranes were then blocked with 5% BSA in TBS-T buffer for 1 h at RT. Membranes were next incubated anticathepsin S antibody (1:1,000, overnight, 4 °C), and the next day with a secondary antibody (IRDye 800CW, donkey anti-Goat) for 30 min at RT, and scanned at 680 and 800 nm using the Sapphire biomolecular imager (Azure Biosystems) to detect the Cy5 probes and cathepsin S. All images were analyzed with Image Studio software.

[6] = target: T5, Cathepsin B (Homo sapiens, UniProt P07858); test: Second-order rate constants of inhibition (kobs/[I]), cathepsin B; format: biochemical; set-up: made in house; settings: Figure 4D; Cy5- and BODIPY-labeled probes
Experimental: as §1, §2

[7] = target: T5, Cathepsin B; test: Labeling of cathepsin B in MDA-MB-231 live cells with Cy5 probes; format: cell-based; set-up: endogenous in cells; host or cells: MDA-MB-231; settings: cellular environments; probe labeling
Experimental: as §3

T1 sequence (P25774 115-331): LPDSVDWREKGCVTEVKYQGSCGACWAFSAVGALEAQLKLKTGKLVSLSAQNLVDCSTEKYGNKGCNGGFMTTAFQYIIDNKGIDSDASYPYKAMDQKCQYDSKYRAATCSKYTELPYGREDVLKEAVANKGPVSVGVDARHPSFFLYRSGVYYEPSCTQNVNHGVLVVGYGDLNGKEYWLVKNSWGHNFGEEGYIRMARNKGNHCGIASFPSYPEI
T3 sequence (O60911 114-334): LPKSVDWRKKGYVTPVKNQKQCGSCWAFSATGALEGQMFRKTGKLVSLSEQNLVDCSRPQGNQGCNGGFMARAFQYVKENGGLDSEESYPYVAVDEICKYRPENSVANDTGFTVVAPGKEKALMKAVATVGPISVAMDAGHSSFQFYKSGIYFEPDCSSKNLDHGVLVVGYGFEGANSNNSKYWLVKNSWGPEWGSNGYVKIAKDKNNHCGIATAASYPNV
T4 sequence (P25774 115-331): as the sequence (P25774 115-331) above
T2 sequence (P07711 114-333): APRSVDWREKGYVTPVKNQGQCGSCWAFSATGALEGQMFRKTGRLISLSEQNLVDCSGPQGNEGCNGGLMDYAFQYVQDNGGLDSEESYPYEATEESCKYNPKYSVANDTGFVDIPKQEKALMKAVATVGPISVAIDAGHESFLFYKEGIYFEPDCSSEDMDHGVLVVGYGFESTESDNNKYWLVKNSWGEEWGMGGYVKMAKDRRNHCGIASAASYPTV

Cy5-PEG(4)-Phe(F5)-Cit-Lys(2ClZ)-Glu(Me)-AOMK [OG-233]
kobs/[I] Cath S ([1]; Figure 4D, Cy5- and BODIPY-labeled probes): 1,537,000 M^-1s^-1
Selectivity S to B ([1]; Figure 4D, calculated from kobs/[I], cathepsin S over cathepsin B): 180
Selectivity S to L ([1]; Figure 4D, calculated from kobs/[I], cathepsin S over cathepsin L): 2,700
Selectivity S to V ([1]; Figure 4D, calculated from kobs/[I], cathepsin S over cathepsin V): 3,340
higher potency than the unlabeled parent inhibitor ([1]; cathepsin S kobs/[I], probe vs parent inhibitor): over 2 fold
selectivity for cathepsin S over cathepsin L ([1]; kobs/[I] based): > 2000 fold
selectivity for cathepsin S over cathepsin V ([1]; kobs/[I] based): > 500 fold
kobs/[I] Cath L [2]: 570 M⁻¹ s⁻¹
kobs/[I] Cath V [3]: 460 M⁻¹ s⁻¹
labeling of recombinant cathepsins (fluorescent gel scanning) [4]: labeled recombinant cathepsin S over other cathepsins
detection of active cathepsin S in living cells [5]: able to detect active cathepsin S as soon as upon 3 h incubation
kobs/[I] Cath B [6]: 8,520 M^-1s^-1
off-target labeling of cathepsin B in cells [7]: minor off-target labeling of cathepsin B

Reference: publication PMC13403234, “Engineering Cathepsin S Selective Chemical Probes and Antibody−Drug Conjugates through Substrate Profiling with Unnatural Amino Acids” (Journal of Medicinal Chemistry, 2026)
